In data set [1] the test system is human peripheral blood mononuclear cells (PBMC). Kind of data set: Peripheral blood mononuclear cell assay (cytokine induction, CBA). The format is cell-based. Particulars: 24 h, human PBMC, 24 h; for minimal effective concentration: Homo sapiens, PBMC, read-out: INF-α MEC. The method, then:
Peripheral Blood Mononuclear Cell Assay The purpose of this example is to determine the expression level of cytokines 24 h after stimulation to human peripheral blood mononuclear cells (PBMC) with the compounds. The cell supernatant was assayed without dilution and the levels of IFN-α and TNF-α were directly determined. The compound was firstly formulated into 20 mM DMSO stock solution and was gradient diluted with cell medium in 10-fold with the total number of 11 diluting points. The compounds in 9 diluting points (the highest concentration was 200 μmol/L) were added into 96-well plate with 50 μL in each well. Fresh human peripheral blood mononuclear cells were inoculated, with 150 μL in each well containing 450,000 cells. The cell culture plate was incubated in an incubator at 37° C., 5% CO2 for 24 h. After incubation, the culture plate was centrifuged at 1200 rpm for 5 min and the supernatant was collected and stored at −20° C. for determination. The determination of cytokine was performed using Cytometric Bead Array (CBA) of BD-Pharmingen on flow cytometer. Using the above determining method, the lowest drug concentration stimulating cytokine level which is over 3 times greater than the lowest detectable limit was designated as the MEC (Minimal Effective Concentration) value in the cytokine stimulating test.

Data set [2] addresses Toll-like receptor 7 (Homo sapiens (Human), UniProt Q9NYK1). Kind of data set: Toll-like receptor 7 in vitro receptor binding activity screen (HEK-blue hTLR7 cell, alkaline phosphatase/Quanti-Blue readout). The format is cell-based. Particulars: HEK-blue hTLR7 cell, read-out: TLR7 EC50. The method, then:
(§1) Toll-Like Receptor 7 and Toll-Like Receptor 8 In Vitro Receptor Binding Activity Screen
(§2) HEK-blue hTLR7 cell and HEK-blue hTLR8 cell (available from InvivoGen)
(§3) 1. Preparation of 96-well compound plate:
(§4) The compounds were gradient diluted with DMSO in 3-fold using liquid work station POD starting at a concentration of 10 mmol/L and 10 points were diluted (2nd column to 11th column, and each point was duplicated). At 12th column, 1 μL of 5 mg/mL positive compound R848 was added as positive control; and at 1st column, 1 μL of DMSO was added as negative control. Each well contained 1 μL of DMSO.
(§5) 2. The cells in culture flask were collected and the cell density was diluted to 250,000 cells/mL.
(§6) 3. 200 μL (50,000 cells/well) of cell suspension was added into prepared compound plate and the final concentration of DMSO in each well was 0.5%.
(§7) 4. The culture plates containing cells and the compounds were incubated in CO2 incubator for 24 h at 37° C., 5% CO2.
(§8) 5. After 24 h incubation, 20 μL of supernatant was removed from each well to a 96-well transparent assay plate. To each well of the assay plate was added 180 μL of Quanti-Blue reagent and the plate was incubated in an incubator at 37° C., 5% CO2 for 1 h.
(§9) 6. After 1 h, the content of alkaline phosphatase in 20 μL of supernatant was determined using Microplate Reader OD650.
(§10) 7. EC50 of each compound was obtained with Prism software.

The subject of data set [3] is duck hepatitis b virus. Kind of data set: In vivo pharmacodynamics in duckling model infected with hepatitis B virus. Details: species or system Beijing ducks. The method, then:
In Vivo Pharmacodynamics in Duckling Model Infected with Hepatitis B Virus
Experimental design and procedures: Beijing ducks of 1 day old were intravenously administered duck hepatitis b virus positive duck serum. After 7 days, the animals were administered according to grouping, 6 ducks in each group. Control group: normal saline. […] The samples were administered intragastricly: 20 mg/kg groups were administered once every third day (one administration every 3 days) and 5 mg/kg groups were administered once every day for 16 days. […] For control group infected with duck hepatitis b virus, solvent was used instead of drug. 7 days after infection, the blood was collected before administration (TO),8 days after administration (T8),16 days after administration (T16) and 3 day after ceasing administration (P3), and the duck serum was separated and frozen for storage. […] Duck serum DNA (DHBV-DNA) determination: different duck sera in a batch were determined for duck blood DHBV-DNA level with real time fluorescent quantitative PCR. Statistics analysis: paired and grouped analysis was used to calculate the significance of inhibition of drug on duck serum DHBV-DNA for assessment.

Data set [4] in a line: in vivo. The following applies: male, SD, rat; for half-life: read-out: T½ (converted). The method, then:
12 male SD rats were divided into 4 groups with 3 SD rats in each group. […] […] Each rat with oral administration was collected for whole blood samples which were prepared into plasma 15, 30 min and 1, 2, 4, 8, 24 h continuously after administration.

Data set [5] deals with Toll-like receptor 8 (Homo sapiens (Human), UniProt Q9NR97). Kind of data set: Toll-like receptor 8 in vitro receptor binding activity screen (HEK-blue hTLR8 cell, alkaline phosphatase/Quanti-Blue readout). The following applies: HEK-blue hTLR8 cell, head-to-head test; read-out: TLR8 EC50. The format is cell-based. The method, then:
as §1, §2, §3, §4, §5, §6, §7, §8, §9, §10

Setting [6] is: Minimal Effective Concentration.

The structures appear in SMILES notation. Read-outs that look alike come from different tables or passages of the source.

Sequence of Toll-like receptor 7 (Q9NYK1 27-1049): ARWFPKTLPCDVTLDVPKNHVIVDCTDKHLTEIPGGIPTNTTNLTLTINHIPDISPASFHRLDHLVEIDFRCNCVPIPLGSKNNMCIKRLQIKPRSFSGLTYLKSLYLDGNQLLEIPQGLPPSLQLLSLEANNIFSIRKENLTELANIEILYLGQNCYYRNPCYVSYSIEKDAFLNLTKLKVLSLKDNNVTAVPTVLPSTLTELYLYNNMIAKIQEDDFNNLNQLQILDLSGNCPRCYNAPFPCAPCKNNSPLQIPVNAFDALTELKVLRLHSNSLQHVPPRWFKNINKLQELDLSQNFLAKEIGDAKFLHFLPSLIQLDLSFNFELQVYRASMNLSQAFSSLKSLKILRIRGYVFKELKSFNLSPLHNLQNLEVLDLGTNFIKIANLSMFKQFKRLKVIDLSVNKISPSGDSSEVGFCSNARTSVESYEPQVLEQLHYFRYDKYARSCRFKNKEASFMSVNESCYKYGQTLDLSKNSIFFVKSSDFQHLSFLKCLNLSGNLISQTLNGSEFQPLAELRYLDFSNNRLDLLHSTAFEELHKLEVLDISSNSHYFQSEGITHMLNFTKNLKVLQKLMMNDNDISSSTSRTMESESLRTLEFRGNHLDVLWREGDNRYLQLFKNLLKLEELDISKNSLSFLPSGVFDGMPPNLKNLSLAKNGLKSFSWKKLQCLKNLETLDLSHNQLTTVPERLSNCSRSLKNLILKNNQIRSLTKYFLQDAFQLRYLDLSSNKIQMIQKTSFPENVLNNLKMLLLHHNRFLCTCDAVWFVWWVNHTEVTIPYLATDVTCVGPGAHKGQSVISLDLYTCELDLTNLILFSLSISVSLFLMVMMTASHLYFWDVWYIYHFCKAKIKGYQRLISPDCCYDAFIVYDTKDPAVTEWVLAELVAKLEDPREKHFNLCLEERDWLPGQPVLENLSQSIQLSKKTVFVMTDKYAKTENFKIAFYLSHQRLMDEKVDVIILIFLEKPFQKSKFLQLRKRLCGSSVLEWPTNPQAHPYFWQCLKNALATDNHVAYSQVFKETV
Sequence of Toll-like receptor 8 (Q9NR97 27-1041): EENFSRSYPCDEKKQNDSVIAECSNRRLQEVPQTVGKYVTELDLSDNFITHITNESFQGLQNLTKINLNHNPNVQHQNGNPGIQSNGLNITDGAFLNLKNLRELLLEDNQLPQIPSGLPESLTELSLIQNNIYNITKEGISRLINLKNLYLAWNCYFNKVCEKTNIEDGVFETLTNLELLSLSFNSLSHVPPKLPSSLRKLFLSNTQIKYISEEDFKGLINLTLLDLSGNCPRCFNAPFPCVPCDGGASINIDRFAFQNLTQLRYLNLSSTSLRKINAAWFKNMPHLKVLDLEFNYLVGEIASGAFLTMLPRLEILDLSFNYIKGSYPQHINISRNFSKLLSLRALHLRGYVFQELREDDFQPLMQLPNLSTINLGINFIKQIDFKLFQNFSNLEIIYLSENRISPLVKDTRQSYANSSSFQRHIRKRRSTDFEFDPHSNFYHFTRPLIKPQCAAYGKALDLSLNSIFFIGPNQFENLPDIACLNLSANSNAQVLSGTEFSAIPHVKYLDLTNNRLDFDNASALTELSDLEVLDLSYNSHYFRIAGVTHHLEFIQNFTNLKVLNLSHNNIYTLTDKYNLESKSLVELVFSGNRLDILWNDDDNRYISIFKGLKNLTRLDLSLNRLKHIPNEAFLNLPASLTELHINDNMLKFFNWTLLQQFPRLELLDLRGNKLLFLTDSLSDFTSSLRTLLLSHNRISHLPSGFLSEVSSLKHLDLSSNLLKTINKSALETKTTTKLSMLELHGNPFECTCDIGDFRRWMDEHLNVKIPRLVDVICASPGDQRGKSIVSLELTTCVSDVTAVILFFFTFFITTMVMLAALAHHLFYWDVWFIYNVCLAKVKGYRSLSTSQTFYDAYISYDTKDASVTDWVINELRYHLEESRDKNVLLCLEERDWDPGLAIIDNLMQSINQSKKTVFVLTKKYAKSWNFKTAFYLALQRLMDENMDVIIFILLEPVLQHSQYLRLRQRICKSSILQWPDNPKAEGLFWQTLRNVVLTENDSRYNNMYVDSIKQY

As to `CCCCOc1nc(N)c2[nH]cc(Cc3cccc(CN4CCCC4)c3)c2n1` [Example 4, 2-butoxy-7-(3-(pyrrolidine-1-ylmethyl)benzyl)-5H-pyrrolo[3,2-d]pyrimidine-4-amine], the minimal effective concentration in data set [1] (setting [6]) lay in the range of 0.01 to 100 µM. In addition, the EC50 (in general, the concentration giving half of the maximal effect) in data set [2] (24 h) lay within 100 to 1000 nM.
On to `CCCCOc1nc(N)c2[nH]cc(Cc3ccc(CN4CCCC4)nc3)c2n1` [Example 22, 2-butoxy-7-((6-(pyrrolidine-1-ylmethyl)pyridine-3-yl)methyl)-5H-pyrrolo[3,2-d]pyrimidine-4-amine], for which the minimal effective concentration in data set [1] (setting [6]) is 0.001 to 0.01 µM. Moreover, the EC50 in data set [2] (24 h) fell in the range of 100 to 1000 nM.
On to `CCCCOc1nc(N)c2[nH]cc(Cc3ccc4c(c3)CNCC4)c2n1` [Example 28, 2-butoxy-7-((1,2,3,4-tetrahydroisoquinoline-7-yl)methyl)-5H-pyrrolo[3,2-d]pyrimidine-4-amine], for which the minimal effective concentration in data set [1] (setting [6]) is 0.001 to 0.01 µM. The EC50 in data set [2] (24 h) was in the range of 100 to 1000 nM.
With `CCCCOc1nc(N)c2[nH]cc(Cc3ccc4c(c3)CN(C)CC4)c2n1` [Example 29, 2-butoxy-7-((2-methyl-1,2,3,4-tetrahydroisoquinoline-7-yl)methyl)-5H-pyrrolo[3,2-d]pyrimidine-4-amine], the minimal effective concentration in data set [1] (setting [6]) is 1e-05 to 0.001 µM. Also, the EC50 in data set [2] (24 h) fell in the range of 100 to 1000 nM.
In the case of `CCCCOc1nc(N)c2[nH]cc(Cc3ccc4c(c3)CN(CC)CC4)c2n1` [Example 30, 2-butoxy-7-((2-ethyl-1,2,3,4-tetrahydroisoquinoline-7-yl)methyl)-5H-pyrrolo[3,2-d]pyrimidine-4-amine], the minimal effective concentration in data set [1] (setting [6]) fell in the range of 0.001 to 0.01 µM. Also, the EC50 in data set [2] (24 h) is 100 to 1000 nM.
With `CCCCOc1nc(N)c2[nH]cc(Cc3ccc4c(c3)CN(C(C)C)CC4)c2n1` [Example 31, 2-butoxy-7-((2-isopropyl-1,2,3,4-tetrahydroisoquinoline-7-yl)methyl)-5H-pyrrolo[3,2-d]pyrimidine-4-amine], the minimal effective concentration in data set [1] (setting [6]) fell in the range of 0.001 to 0.01 µM. Also, the EC50 in data set [2] (24 h) fell in the range of 100 to 1000 nM.
For `CCCCOc1nc(N)c2[nH]c(C#N)c(Cc3ccc(CN4CCCC4)cc3)c2n1` [Example 42, 4-amino-2-butoxy-7-(4-(pyrrolidine-1-ylmethyl)benzyl)-5H-pyrrolo[3,2-d]pyrimidine-6-carbonitrile], the minimal effective concentration in data set [1] (setting [6]) was in the range of 1e-05 to 0.001 µM. For the same molecule, the EC50 in data set [2] (24 h) fell in the range of 1 to 100 nM.
Turning to `CCCCOc1nc(N)c2[nH]c(C#N)c(Cc3ccc(CN4CCN(C)CC4)cc3)c2n1` [Example 44, 4-amino-2-butoxy-7-(4-((4-methylpiperazine-1-yl)methyl)benzyl)-5H-pyrrolo[3,2-d]pyrimidine-6-carbonitrile], in data set [2] (24 h), the EC50 fell in the range of 1 to 100 nM.
`CCCCOc1nc(N)c2[nH]c(C(N)=O)c(Cc3ccc(CN4CCCC4)cc3)c2n1` [Example 45, 4-amino-2-butoxy-7-(4-(pyrrolidine-1-ylmethyl)benzyl)-5H-pyrrolo[3,2-d]pyrimidine-6-formamide]: the EC50 in data set [2] (24 h) fell in the range of 100 to 1000 nM.
For `CCCCOc1nc(N)c2c(n1)N(Cc1cccc(CN3CCCC3)c1)CC(=O)N2` [GS-9620, reference compound], the “Duck serum HBV-DNA inhibition %” value in data set [3] (5 mg/kg intragastric once every day for 16 days, P3) was 70.60 ± 47.66%; in data set [3] (5 mg/kg intragastric once every day for 16 days, T8), 98.66 ± 2.75 %; in data set [3] (5 mg/kg intragastric once every day for 16 days, T16), 78.02 ± 51.69%; in data set [3] (20 mg/kg intragastric once every third day, P3 (3 days after ceasing administration)), −132.97 ± 352.35%; in data set [3] (20 mg/kg intragastric once every third day, T8 (8 days after administration)), 99.13 ± 1.83 %; in data set [3] (20 mg/kg intragastric once every third day, T16 (16 days after administration)), 98.26 ± 1.50 %. Moreover, in data set [3] (20 mg/kg one administration every third day, 3 days after ceasing administration), the “rebound of HBV-DNA replication” value is recorded as “rebound of HBV-DNA replication”. Moreover, the minimal effective concentration in data set [1] (head-to-head test) is 0.05 µM. In data set [1] (head-to-head test), the “TNF-α MEC” value was 500 nM. Also, the EC50 was determined as 517 nM in data set [2] (head-to-head test) and 7870 nM in data set [5]. Also, the half-life in data set [4] (1 mg/kg, IV 1 mpk) was 2.57 h; in data set [4] (5 mg/kg, PO 5 mpk), 2.24 h. Also, the total exposure AUC(0-inf) (in general, total exposure, with the tail of the curve extrapolated) came to 0.201 µM·h in data set [4] (iv, 1 mg/kg) and 0.359 µM·h in data set [4] (po, 5 mg/kg). In addition, the AUC(0-t) (usually exposure summed from dosing to a finite time, without extrapolation to infinity) in data set [4] (iv, 1 mg/kg) amounted to 0.185 µM·h; in data set [4] (po, 5 mg/kg), 0.316 µM·h. The Cmax (usually the highest concentration seen after dosing) in data set [4] (iv, 1 mg/kg) turned out to be 220 nM; in data set [4] (po, 5 mg/kg) it was 164 nM. For the same molecule, the Vd (commonly a proportionality between amount in the body and measured concentration, not a real space) in data set [4] (iv, 1 mg/kg) came to 32.8 L/kg. In addition, the clearance (as a rule, the volume of plasma or blood freed of the substance per unit of time) in data set [4] (iv, 1 mg/kg) came to 205 mL/min/kg. The Mean plasma drug concentration in data set [4] (iv, 1 mg/kg, 0.083 h) is 170 nM; in data set [4] (iv, 1 mg/kg, 0.25 h) it was 102 nM; in data set [4] (iv, 1 mg/kg, 0.5 h), 65.4 nM; in data set [4] (iv, 1 mg/kg, 1 h), 48.1 nM; in data set [4] (iv, 1 mg/kg, 2 h) it was 21.6 nM; in data set [4] (iv, 1 mg/kg, 4 h), 13 nM. Also, the Mean plasma drug concentration in data set [4] (iv, 1 mg/kg, 8 h) was 4.17 nM; in data set [4] (po, 5 mg/kg, 0.25 h), 56.3 nM; in data set [4] (po, 5 mg/kg, 0.5 h), 33.2 nM; in data set [4] (po, 5 mg/kg, 1 h), 83.4 nM; in data set [4] (po, 5 mg/kg, 2 h), 136 nM; in data set [4] (po, 5 mg/kg, 4 h) it was 16.7 nM. In data set [4] (po, 5 mg/kg, 8 h), this molecule yielded a Mean plasma drug concentration of 9.49 nM.

The values above are taken from patent US9962388B2, “Pyrrolopyrimidine compounds used as TLR7 agonist” (priority 2014, dated 2018).
